The nature of data set [1]: Brain and plasma exposure in rats after oral dosing (DMPK analysis). Format: in vivo. The note with it: male, Sprague Dawley, rat, 3 hours post dose. How it is done: Young adult Male Sprague Dawley rats of approximately 250 g weight were purchased from Charles River and received 0-30 mg/kg of vehicle (10% HP betaCD+1M MeSO4, pH 2.5) or test compounds (dissolved in vehicle) only by oral gavage (p.o). The compounds are dosed at a volume of 5 ml/kg. Cohorts of 5-10 animals were established for each treatment condition.
At T=180 minutes after initial dosing the animals were stunned and decapitated with a guillotine. Trunk-blood was sampled in EDTA coated tubes after decapitation of the animal. The blood was centrifuged at 2200G at 4° C. for 15 minutes and the plasma was collected and frozen at −80° C. The blood was aliquoted for Aβ ELISA and DMPK analysis. Immediately following sacrifice, the brain was extracted and split into 2 halves. The right hemibrains were snap frozen on dry ice and stored at −80° C. The left half was dissected; with the front forebrain taken for Aβ ELISA and the remainder used for DMPK analysis. These samples were also snap frozen on dry ice and stored at −80° C. until use for analysis.
Compounds 1, 5, 17, 18, and 24 were administered at doses of 10 or 30 mg/kg p.o. and brain and plasma samples were collected at 3 hours post dose and the following exposures and reductions in Aβ40 levels were measured as described above.

For data set [2], the target named is BACE1 enzyme (Homo sapiens (Human), UniProt P56817). In words: BACE1 efficacy assay (FRET-based, commercial BACE1 kit). It is filed as biochemical. To be noted: test compound 10 μM, 3 nM enzyme, 250 nM substrate. How it is done: The efficacy assay was performed as a FRET-based assay using a commercially available BACE1 kit (Life Technologies, P2985). 2 μl test compound at 10 μM (final concentration) and 15 μl BACE1 enzyme from the kit (final concentration 3 nM) were preincubated for 15 minutes at room temperature before addition of 15 μl of substrate from the kit (250 nM final concentration) and incubated for additional 90 minutes at room temperature. The assay plate was subsequently read in a Pherastar (Ex540/Em590). […] The efficacy of the test compounds was evaluated at 10 μM (final concentration) and defined as the percent inhibition of the enzyme activity using the equation % inhibition=100%−normalized enzyme activity in percent.
Chain of BACE1 enzyme (P56817 46-501): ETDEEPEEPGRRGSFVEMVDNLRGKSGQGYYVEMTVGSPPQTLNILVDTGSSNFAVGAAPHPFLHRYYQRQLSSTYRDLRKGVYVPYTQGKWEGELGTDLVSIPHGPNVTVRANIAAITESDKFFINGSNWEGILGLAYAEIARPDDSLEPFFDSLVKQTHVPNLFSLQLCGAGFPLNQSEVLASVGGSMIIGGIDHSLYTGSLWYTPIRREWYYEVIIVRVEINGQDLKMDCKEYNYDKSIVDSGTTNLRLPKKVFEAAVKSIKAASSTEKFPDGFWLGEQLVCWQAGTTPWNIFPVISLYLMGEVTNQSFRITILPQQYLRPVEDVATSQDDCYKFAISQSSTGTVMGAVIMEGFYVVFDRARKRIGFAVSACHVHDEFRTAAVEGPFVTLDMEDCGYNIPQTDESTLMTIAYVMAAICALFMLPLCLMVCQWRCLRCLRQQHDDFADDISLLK

Setting [3] is: 30 mg/kg p.o., brain, read-out: Exp, brain.
Setting [4] is: 30 mg/kg p.o., plasma, read-out: Exp, plasma.

Each structure is given as a SMILES string. Counter-ions that a name gives are not always drawn. Like-named read-outs stand apart in the source and are kept apart here.

The term inhibition denotes the drop in the measured response relative to a control, in per cent. As for `C[C@]1(F)CC(F)(F)[C@@](C)(c2cc(NC(=O)c3ccc(F)cn3)ccc2F)N=C1N` [Compound 1, N-(3-((2R,5S)-6-amino-3,3,5-trifluoro-2,5-dimethyl-2,3,4,5-tetrahydropyridin-2-yl)-4-fluorophenyl)-5-fluoropicolinamide], the results for the concentration at 3 h in data set [1] (setting [3]) and in data set [1] (setting [4]) were 2190 ng/g and 3540 ng/g, respectively. The inhibition at 10 µM in data set [2] stood at 104%.
For the molecule `COc1cnc(C(=O)Nc2ccc(F)c([C@@]3(C)N=C(N)[C@@](C)(F)CC3(F)F)c2)cn1` [Compound 5, N-(3-((2R,5S)-6-amino-3,3,5-trifluoro-2,5-dimethyl-2,3,4,5-tetrahydropyridin-2-yl)-4-fluorophenyl)-5-methoxypyrazine-2-carboxamide], the concentration at 3 h is 174 ng/g in data set [1] (10 mg/kg p.o., brain, read-out: Exp, brain); 137 ng/g in data set [1] (10 mg/kg p.o., plasma, read-out: Exp, plasma); 954 ng/g in data set [1] (setting [3]); 632 ng/g in data set [1] (setting [4]). Besides, the inhibition at 10 µM in data set [2] is 96%.
As to `COc1ccc(C(=O)Nc2ccc(F)c([C@@]3(C)N=C(N)[C@@](C)(F)CC3(F)F)c2)nc1` [Compound 17, N-(3-((2R,5S)-6-amino-3,3,5-trifluoro-2,5-dimethyl-2,3,4,5-tetrahydropyridin-2-yl)-4-fluorophenyl)-5-methoxypicolinamide], the concentration at 3 h in data set [1] (setting [3]) amounted to 1220 ng/g; in data set [1] (setting [4]) it was 828 ng/g. The inhibition at 10 µM in data set [2] stood at 101%.
`C[C@@]1(F)CC(F)(F)[C@@](C)(c2cc(NC(=O)c3ccc(Cl)cn3)ccc2F)N=C1N` [Compound 33, N-(3-((2R,5R)-6-amino-3,3,5-trifluoro-2,5-dimethyl-2,3,4,5-tetrahydropyridin-2-yl)-4-fluorophenyl)-5-chloropicolinamide]: in data set [2], the inhibition at 10 µM stood at 103%.
Same read-out and setting: as for `Cc1nc(C(=O)Nc2ccc(F)c([C@@]3(C)N=C(N)[C@](C)(F)CC3(F)F)c2)co1` [Compound 34, N-(3-((2R,5R)-6-amino-3,3,5-trifluoro-2,5-dimethyl-2,3,4,5-tetrahydropyridin-2-yl)-4-fluorophenyl)-2-methyloxazole-4-carboxamide], the figure is 102%; as for `Cc1nc(C(=O)Nc2ccc(F)c([C@@]3(C)N=C(N)[C@](C)(F)CC3(F)F)c2)no1` [Compound 35, N-(3-((2R,5R)-6-amino-3,3,5-trifluoro-2,5-dimethyl-2,3,4,5-tetrahydropyridin-2-yl)-4-fluorophenyl)-5-methyl-1,2,4-oxadiazole-3-carboxamide], 100%.
Consider `C[C@@]1(F)CC(F)(F)[C@@](C)(c2cc(NC(=O)c3nccs3)ccc2F)N=C1N` [Compound 36, N-(3-((2R,5R)-6-amino-3,3,5-trifluoro-2,5-dimethyl-2,3,4,5-tetrahydropyridin-2-yl)-4-fluorophenyl)thiazole-2-carboxamide], for which the inhibition at 10 µM in data set [2] came out at 100%.
On the same count and under the same terms, as for `Cn1cc(Br)nc1C(=O)Nc1ccc(F)c([C@@]2(C)N=C(N)[C@](C)(F)CC2(F)F)c1` [Compound 37, N-(3-((2R,5R)-6-amino-3,3,5-trifluoro-2,5-dimethyl-2,3,4,5-tetrahydropyridin-2-yl)-4-fluorophenyl)-4-bromo-1-methyl-1H-imidazole-2-carboxamide], the figure is 104%; as for `Cc1cn(C)c(C(=O)Nc2ccc(F)c([C@@]3(C)N=C(N)[C@](C)(F)CC3(F)F)c2)n1` [Compound 38, N-(3-((2R,5R)-6-amino-3,3,5-trifluoro-2,5-dimethyl-2,3,4,5-tetrahydropyridin-2-yl)-4-fluorophenyl)-1,4-dimethyl-1H-imidazole-2-carboxamide], 98%.
Regarding `Cn1ccc(C(=O)Nc2ccc(F)c([C@@]3(C)N=C(N)[C@](C)(F)CC3(F)F)c2)n1` [Compound 39, N-(3-((2R,5R)-6-amino-3,3,5-trifluoro-2,5-dimethyl-2,3,4,5-tetrahydropyridin-2-yl)-4-fluorophenyl)-1-methyl-1H-pyrazole-3-carboxamide], the inhibition at 10 µM in data set [2] was determined as 74%.
On to `Cc1cc(C(=O)Nc2ccc(F)c([C@@]3(C)N=C(N)[C@](C)(F)CC3(F)F)c2)on1` [Compound 40, N-(3-((2R,5R)-6-amino-3,3,5-trifluoro-2,5-dimethyl-2,3,4,5-tetrahydropyridin-2-yl)-4-fluorophenyl)-3-methylisoxazole-5-carboxamide], for which the inhibition at 10 µM in data set [2] is 69%.
Consider `Cc1ccc(C(=O)Nc2ccc(F)c([C@@]3(C)N=C(N)[C@](C)(F)CC3(F)F)c2)o1` [Compound 41, N-(3-((2R,5R)-6-amino-3,3,5-trifluoro-2,5-dimethyl-2,3,4,5-tetrahydropyridin-2-yl)-4-fluorophenyl)-5-methylfuran-2-carboxamide], for which, in data set [2], the inhibition at 10 µM worked out at 93%.
`Cc1ncc(C(=O)Nc2ccc(F)c([C@@]3(C)N=C(N)[C@](C)(F)CC3(F)F)c2)o1` [Compound 42, N-(3-((2R,5R)-6-amino-3,3,5-trifluoro-2,5-dimethyl-2,3,4,5-tetrahydropyridin-2-yl)-4-fluorophenyl)-2-methyloxazole-5-carboxamide trifluoroacetic acid salt]: in data set [2], the inhibition at 10 µM is 84%.
Take `[2H]C([2H])([2H])Oc1ccc(C(=O)Nc2ccc(F)c([C@@]3(C)N=C(N)[C@](C)(F)CC3(F)F)c2)nc1` [Compound 43, N-(3-((2R,5R)-6-amino-3,3,5-trifluoro-2,5-dimethyl-2,3,4,5-tetrahydropyridin-2-yl)-4-fluorophenyl)-5-(methoxy-d3)picolinamide]: the inhibition at 10 µM in data set [2] stood at 94%.
For the molecule `C[C@@]1(F)CC(F)(F)[C@@](C)(c2cc(NC(=O)c3ccc(Cl)cc3)ccc2F)N=C1N` [Compound 44, N-(3-((2R,5R)-6-amino-3,3,5-trifluoro-2,5-dimethyl-2,3,4,5-tetrahydropyridin-2-yl)-4-fluorophenyl)-4-chlorobenzamide], the inhibition at 10 µM in data set [2] worked out at 92%.
Still for that read-out and setting: as for `C[C@]1(F)CC(F)(F)[C@@](C)(c2cc(NC(=O)c3ccc(OC(F)F)cn3)ccc2F)N=C1N` [Compound 45, N-(3-((2R,5S)-6-amino-3,3,5-trifluoro-2,5-dimethyl-2,3,4,5-tetrahydropyridin-2-yl)-4-fluorophenyl)-5-(difluoromethoxy)picolinamide], the figure is 103%; as for `COc1cnc(C(=O)Nc2ccc(F)c([C@@]3(C)N=C(N)[C@@](C)(F)CC3(F)F)c2)c(F)c1` [Compound 46, N-(3-((2R,5S)-6-amino-3,3,5-trifluoro-2,5-dimethyl-2,3,4,5-tetrahydropyridin-2-yl)-4-fluorophenyl)-3-fluoro-5-methoxypicolinamide], 101%.
On to `Cc1nc(C(=O)Nc2ccc(F)c([C@@]3(C)N=C(N)[C@@](C)(F)CC3(F)F)c2)c(C)o1` [Compound 47, N-(3-((2R,5S)-6-amino-3,3,5-trifluoro-2,5-dimethyl-2,3,4,5-tetrahydropyridin-2-yl)-4 fluorophenyl)-2,5-dimethyloxazole-4-carboxamide], for which the inhibition at 10 µM in data set [2] came to 102%.
For `[2H]C([2H])([2H])Oc1ccc(C(=O)Nc2ccc(F)c([C@@]3(C)N=C(N)[C@@](C)(F)CC3(F)F)c2)nc1` [Compound 48], in data set [2], the inhibition at 10 µM stood at 99%.
Regarding `Cc1cc(F)cnc1C(=O)Nc1ccc(F)c([C@@]2(C)N=C(N)[C@@](C)(F)CC2(F)F)c1` [Compound 49, N-(3-((2R,5S)-6-amino-3,3,5-trifluoro-2,5-dimethyl-2,3,4,5-tetrahydropyridin-2-yl)-4-fluorophenyl)-5-fluoro-3-methylpicolinamide], the inhibition at 10 µM in data set [2] was determined as 98%.

The values are drawn from patent US10004738B2, “Combination treatment comprising administration of 2-amino-3,5,5-trifluoro-3,4,5,6-tetrahydropyridines” (H. Lundbeck A/S, priority 2015, dated 2018).
